The compounds below were run against T1, purified human IDO protein (Homo sapiens, UniProt P14902, E119G/P110S) (assay: Enzymatic IDO assay (kynurenine formation, absorbance at 480 nm)). Settings: recombinant human IDO, 200 μM L-tryptophan, pH 6.5; reported in ranges.
T1 construct: 6-Histidine tag (C); made in house; host or cells: E. coli M15(pREP4) transformed with pQE70-hIDO
Type: biochemical
Method: The inhibitors were initially diluted in DMSO at 100 mM and were diluted in potassium phosphate 50 mM, added to the reaction mixture at final concentrations raging from 1 mM to 5 nM and preincubated with the enzyme for 5 min at 25° C. The reaction was started by addition of L-tryptophan to 200 μM and incubated 15 min at 37° C. The reaction was stopped by addition of 0.5 vol of 30% trichloroacetic acid and incubated 30 min at 60° C. to hydrolyze N-formylkynurenine to kynurenine. The reaction was centrifuged at 3400 g for 5 min to remove precipitated protein and the supernatant was reacted with 2% (w/v) of p-dimethylaminobenzaldehyde in acetic acid. The reaction was incubated 10 min at 25° C. and read at 480 nm in a spectrophotometer. […] Nonlinear regressions and determination of the IC50 values were performed using the GraphPad Prism 4 software.

T1 sequence (P14902 whole entry P110S/E119G): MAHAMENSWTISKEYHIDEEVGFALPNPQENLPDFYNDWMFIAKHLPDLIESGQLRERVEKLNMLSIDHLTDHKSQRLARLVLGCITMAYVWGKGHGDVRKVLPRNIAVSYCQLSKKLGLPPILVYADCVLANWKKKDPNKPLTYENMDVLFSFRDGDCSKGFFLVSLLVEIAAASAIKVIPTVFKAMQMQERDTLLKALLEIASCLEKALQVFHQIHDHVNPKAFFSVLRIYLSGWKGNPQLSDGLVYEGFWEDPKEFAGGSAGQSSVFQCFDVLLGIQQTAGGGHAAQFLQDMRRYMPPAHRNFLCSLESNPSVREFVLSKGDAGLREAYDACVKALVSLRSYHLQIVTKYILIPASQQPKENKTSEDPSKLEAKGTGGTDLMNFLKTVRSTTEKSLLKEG

IC50 [µM]	Structure (SMILES)
20 to 100	O=[N+]([O-])c1ccc(Cn2cncc2-c2ccccc2)cc1 [Compound 85, 1-(4-nitrobenzyl)-5-phenyl-1H-imidazole]
20 to 100	CC(C)(C)OC(=O)NCCCCn1cncc1-c1ccccc1 [Compound 86, tert-butyl 4-(5-phenyl-1H-imidazol-1-yl)butylcarbamate]
20 to 100	Clc1cccc(Cn2cncc2-c2ccccc2)c1 [Compound 87, 1-(3-chlorobenzyl)-5-phenyl-1H-imidazole]
20 to 100	COc1ccccc1-c1cncn1CCC(C)(C)C [Compound 89, 1-(3,3-dimethylbutyl)-5-(2-methoxyphenyl)-1H-imidazole]
20 to 100	Cc1cccc(Cn2cncc2-c2ccccc2)c1 [Compound 90, 1-(3-methylbenzyl)-5-phenyl-1H-imidazole]
20 to 100	Clc1ccc(COc2ccc(OCc3ccc(Cl)cc3)c(-c3c[nH]cn3)c2)cc1 [Compound 91, 4-(2,5-bis(4-chlorobenzyloxy)phenyl)-1H-imidazole]
20 to 100	NCCCOc1ccccc1-c1cnc[nH]1 [Compound 92, 3-(2-(1H-imidazol-5-yl)phenoxy)propan-1-amine]
20 to 100	COc1cccc(Cn2cncc2-c2ccccc2)c1 [Compound 93, 1-(3-methoxybenzyl)-5-phenyl-1H-imidazole]
20 to 100	N#Cc1cccc(-c2c[nH]cn2)c1 [Compound 94, 3-(1H-imidazol-5-yl)benzonitrile]
20 to 100	O=[N+]([O-])c1cccc(Cn2cncc2-c2ccccc2)c1 [Compound 95, 1-(3-nitrobenzyl)-5-phenyl-1H-imidazole]
20 to 100	N#Cc1ccccc1Cn1cncc1-c1ccccc1 [Compound 96, 2-((5-phenyl-1H-imidazol-1-yl)methyl)benzonitrile]
20 to 100	N#Cc1ccc(Cn2cncc2-c2ccccc2)cc1 [Compound 97, 4-((5-phenyl-1H-imidazol-1-yl)methyl)benzonitrile]
100 to 500	c1cnc(NCCCOc2ccccc2-c2cnc[nH]2)nc1 [Compound 98, N-(3-(2-(1H-imidazol-5-yl)phenoxy)propyl)pyrimidin-2-amine]
100 to 500	N#Cc1ccccc1COc1ccccc1-c1c[nH]cn1 [Compound 99, 2-((2-(1H-imidazol-4-yl)phenoxy)methyl)benzonitrile]
100 to 500	CC(=O)N1CCC(COc2ccccc2-c2c[nH]cn2)CC1 [Compound 100, 1-(4-((2-(1H-imidazol-4-yl)phenoxy)methyl)piperidin-1-yl)ethanone]
100 to 500	CS(=O)(=O)Nc1ccccc1-c1c[nH]cn1 [Compound 101, N-(2-(1H-imidazol-4-yl)phenyl)methanesulfonamide]
100 to 500	c1cnc(NCCOc2ccccc2-c2cnc[nH]2)nc1 [Compound 102]
100 to 500	COc1cccc(OC)c1-c1c[nH]cn1 [Compound 103, 5-(2,6-dimethoxyphenyl)-1H-imidazole]
100 to 500	NC(=O)COc1ccccc1-c1c[nH]cn1 [Compound 104, 2-(2-(1H-imidazol-4-yl)phenoxy)acetamide]
100 to 500	COC(=O)Cn1cncc1-c1ccccc1 [Compound 105, methyl 2-(5-phenyl-1H-imidazol-1-yl)acetate]
100 to 500	CC(C)(C)CCn1cncc1-c1ccccc1OCc1ccc(Cl)cc1 [Compound 106, 5-(2-(4-chlorobenzyloxy)phenyl)-1-(3,3-dimethylbutyl)-1H-imidazole]
100 to 500	O=CNCCOc1ccccc1-c1c[nH]cn1 [Compound 107, N-(2-(2-(1H-imidazol-4-yl)phenoxy)ethyl)formamide]
100 to 500	COc1ccccc1Cn1cncc1-c1ccccc1 [Compound 110, 1-(2-methoxybenzyl)-5-phenyl-1H-imidazole]

IC50 [µM]	Structure (SMILES)
100 to 500	CCc1ccc(O)c(-c2cnc[nH]2)c1 [Compound 111, 4-ethyl-2-(1H-imidazol-5-yl)phenol]
100 to 500	COC(=O)c1cccc(-c2c[nH]cn2)c1 [Compound 112, methyl 3-(1H-imidazol-4-yl)benzoate]
100 to 500	O=C(O)c1cccc(-c2c[nH]cn2)c1 [Compound 113, 3-(1H-imidazol-4-yl)benzoic acid]
100 to 500	CC(C)(C)OC(=O)NCCn1cncc1-c1ccccc1 [Compound 114, tert-butyl 2-(5-phenyl-1H-imidazol-1-yl)ethylcarbamate]
100 to 500	COC(=O)c1ccc(-c2c[nH]cn2)cc1 [Compound 115, methyl 4-(1H-imidazol-4-yl)benzoate]
100 to 500	CC(=O)N1CCCC(COc2ccccc2-c2c[nH]cn2)C1 (stereo not drawn) [Compound 117, 1-(3-((2-(1H-imidazol-4-yl)phenoxy)methyl)piperidin-1-yl)ethanone]
100 to 500	NCCn1cncc1-c1ccccc1 [Compound 118, 2-(5-phenyl-1H-imidazol-1-yl)ethanamine]
100 to 500	O=C(O)c1ccc(-c2c[nH]cn2)cc1 [Compound 119, 4-(1H-imidazol-4-yl)benzoic acid]
100 to 500	CCOC(=O)CCCn1cncc1-c1ccccc1 [Compound 121, ethyl 4-(5-phenyl-1H-imidazol-1-yl)butanoate]
100 to 500	CCOC(=O)CCn1cncc1-c1ccccc1 [Compound 122, ethyl 3-(5-phenyl-1H-imidazol-1-yl)propanoate]
100 to 500	c1ccc(Cc2nc[nH]c2-c2ccccc2)cc1 [Compound 123, 4-benzyl-5-phenyl-1H-imidazole]
100 to 500	CC(=O)NCCCn1cncc1-c1ccccc1 [Compound 124, N-(3-(5-phenyl-1H-imidazol-1-yl)propyl)acetamide]
100 to 500	Oc1ccc(Cn2cncc2-c2ccccc2)cc1 [Compound 125, 4-((5-phenyl-1H-imidazol-1-yl)methyl)phenol]
100 to 500	c1ccc(CCc2nc[nH]c2-c2ccccc2)cc1 [Compound 126, 4-phenethyl-5-phenyl-1H-imidazole]
100 to 500	CC(=O)NCCCCn1cncc1-c1ccccc1 [Compound 127, N-(4-(5-phenyl-1H-imidazol-1-yl)butyl)acetamide]
100 to 500	CNC(=O)CCCn1cncc1-c1ccccc1 [Compound 128, N-methyl-4-(5-phenyl-1H-imidazol-1-yl)butanamide]
100 to 500	NC(=O)CCCn1cncc1-c1ccccc1 [Compound 129, 4-(5-phenyl-1H-imidazol-1-yl)butanamide]
20 to 100	NC(=O)c1ccc(COc2ccccc2-c2c[nH]cn2)cc1 [Compound 146, 4-((2-(1H-imidazol-4-yl)phenoxy)methyl)benzamide]
20 to 100	Clc1ccc(COc2cc(Cl)ccc2-c2c[nH]cn2)cc1 [Compound 147, 4-(4-chloro-2-(4-chlorobenzyloxy)phenyl)-1H-imidazole]
< 20	Brc1ccccc1CCOc1ccccc1-c1c[nH]cn1 [Compound 148, 4-(2-(2-bromophenethoxy)phenyl)-1H-imidazole]
20 to 100	Clc1ccccc1OCCc1ccccc1-c1c[nH]cn1 [Compound 149, 4-(2-(2-(2-chlorophenoxy)ethyl)phenyl)-1H-imidazole]
20 to 100	CC(C)(C)OC(=O)N1CCC(CCOc2ccccc2-c2c[nH]cn2)CC1 [Compound 150, tert-butyl 4-(2-(2-(1H-imidazol-4-yl)phenoxy)ethyl) piperidine-1-carboxylate]

From patent US9174942B2, “IDO inhibitors” (NewLink Genetics Corporation, priority 2008, dated 2015)
